One series relates to Nb2 cell line. Put plainly: Nb2 cell proliferation bioactivity assay. The series is classed as cell-based, rat. The conditions noted are these: 48 hrs incubation, MTS absorbance. The procedure:
Bioactivity of the pH adjusted and centrifuged extract was tested using cells from an Nb2 cell line. These cells proliferate in the presence of growth hormone and other […] type compounds. The assay involves putting various concentrations of growth hormone-containing extract into a 96 well plate. Then a constant amount of cells are added to each well. The plate is incubated for 48 hrs and then a reagent called MTS is added. Metabolizing cells take up the MTS and convert it to a blue colored substance. The more cells there are the more blue color in the well. The blue color is measured using a spectrophotometer. The number of cells should be proportional to the concentration of growth hormone in the media. At some high concentration one expects that the cells will become saturated with growth hormone and that the dose response will level off. At very low hGH concentrations essentially no enhanced growth is seen.
To test this hypothesis in vitro, a rat lymphoma cell line, Nb2, that proliferates in the presence of somatotropin (hGH) and other […] type compounds was employed. Proliferation of this cell line is proportional to the amount of somatotropin in the culture medium, until saturation is reached. The ion exchange column eluate from transplastomic Nt-4838 and Nt-38794 plants or identically treated wild-type plants was added to the Nb2 cell culture medium. As control, E. coli produced, refolded hGH was used.

Series [1] concerns homoplasmic tobacco line 38773-6. The series can be described thus: In vitro glyphosate tolerance, shoot regeneration from leaf explants, line 38773-6. The series is classed as cell-based. The conditions noted are these: tobacco plants expressing EPSPS in plastids (pMON38773). The procedure:
A transplastomic tobacco line homoplasmic for the construct pMON38773 was tested in vitro to determine the highest level of glyphosate tolerance. Explant tissue was prepared from leaf pieces of nontransgenic wild type tobacco control, Havanna, plants and the homoplasmic tobacco line 38773-6 and cultured for regeneration of shoots on TSO medium (described above) supplemented with glyphosate levels of 50 μM, 75 μM, 100 μM, 150 μM and 200 μM. The number of explants producing shoots was determined at 3 weeks and 6 weeks after explant preparation and culturing on glyphosate containing medium.

The subject of series [2] is Wild type tobacco (nontransformed control plants). Put plainly: Whole plant glyphosate spray tolerance, wild type. The series is classed as in vivo. The note with it: concentrations as low as 16 oz/Acre.
For series [3], the system named is homoplasmic tobacco plants of the line 38773-6. The series can be described thus: Whole plant glyphosate spray tolerance, line 38773-6. In kind it is in vivo. The procedure: Homoplasmic tobacco plants of the line 38773-6 are sprayed with glyphosate using a track sprayer at concentrations corresponding to 0 oz/acre, 16 oz/acre, 32 oz/acre and 64 oz/acre to test for whole plant tolerance. Plant height was measured before and after spraying with glyphosate. The vegetative injury data was collected two weeks after spraying, while the reproductive injury data was collected at plant maturity.
Tolerance is characterized by the continued growth and greening of tissues sprayed with glyphosate. However, as the concentration of glyphosate applied increased, there was a corresponding increase in the level of vegetative injury.

For series [4] the following is noted: in vivo; cited from earlier work.

The source of these data is US7259293B2, “Expression of eukaryotic peptides in plant plastids” (priority 1998, dated 2007).

As to “chloroplast derived hGH: human growth hormone expressed in tobacco plastids”, the “proliferation of the Nb2 cell line (bioactivity)” value with Nb2 cell line was “biologically active”; in the series with Nb2 cell line (listed as hGH expressed from a plant plastid) it was “sigmoidal shape when graphed as absorbance versus hGH concentration”.
With `O=C(O)CNCP(=O)(O)O` [Glyphosate, N-phosphonomethylglycine], in series [1], the “glyphosate level tolerated (shoot regeneration)” value is listed as “at least 200 μM”. Besides, the “susceptibility to glyphosate spray” value in series [2] is “highly susceptible”. For the same compound, the “glyphosate concentration tolerated, whole plant spray” value in series [3] (homoplasmic tobacco lines, initial results, vegetative tissue injury) was 16 oz/acre. The “glyphosate level tolerated, whole plant spray” value in series [3] (subsequent experiments with additional transformed lines) was 64 oz/Acre. Moreover, the “glyphosate level with a good level of tolerance, whole plant spray” value in series [3] (transplastomic lines) is 32 oz/Acre.
Regarding “alanine-hST: hGH with alanine N-terminus, from Nt4838 extracts, methionine removed by aminopeptidase”, the “proliferation of the Nb2 cell line (bioactivity)” value in the series with Nb2 cell line is recorded as “also bioactive”.
With “recombinant somatotropin: recombinant somatotropin produced in E. coli, N-terminal methionine or phenylalanine (Moore et al. 1988)”, the pharmacokinetics entry in series [4] was “equivalent pharmacokinetics”.
